Assay results taken from patent US7608683B2, “Stress proteins and peptides and methods of use thereof” (The Regents of the University of California, priority 2000, dated 2009).
Where a SMILES comes first, the peptide text is derived from it. The star is where a group is joined. Biotin = O=C1N[C@H]2[C@H](CS[C@H]2CCCCC(=O)*)N1

What was measured:
[1] = tested on: PBMC from patients with RA; settings: 31 RA patient samples
Description: In FIG. 13A, Stimulation Index (SI) (y-axis). […] The dots represent individual patients. Lines indicate median values.
In FIG. 13B samples of 20 patients with recent onset RA and samples of 12 patients with OA were tested for T cell proliferation to the proteins and to the individual peptides.

[2] = tested on: PBMC from patients with JDM; test: T cell proliferation (thymidine incorporation), PBMC of Juvenile Dermatomyositis patients; type: cell-based, human; settings: 10 micrograms/ml, 96 hours; active disease vs remission
Text: FIG. 17 is a graph showing T cell proliferative responses of PBMC from patients with Juvenile Dermatomyositis (JDM) towards the hsp60 bacterial and human peptides of FIG. 5. Patients in remission (n=7); patients with active JDM (n=6).
This example identifies in another pediatric disease a peptide from the pool whose recognition triggers regulatory type T cells. Thirteen patients with a definite diagnosis of JDM according to standard disease criteria, were included in this study. […] All antigens were cultured at 10 micrograms/ml. After 96 hours thymidine incorporation was measured. The results are expressed in FIG. 17 as stimulation index (SI). SI is defined as counts per minute (cpm) thymidine incorporation in cells cultured with an antigen divided by cpm of cells cultured in culture medium without antigen. […] Bars represents the mean SI for PBMC from JDM patients with either active disease or incomplete clinical remission.

[3] = tested on: PBMC of subjects with JIA; type: cell-based, human; settings: 72 hours culture, ELISA
[4] = tested on: PBMCs from patients with RA; test: T cell proliferation assay, PBMC of RA patients in the dnaJP1 trial; type: cell-based, human; settings: negative control peptide
Text: FIG. 20A-L Treatment-induced modulation of T cell responses to dnaJP1. PBMC immune responses to dnaJP and controls from patients enrolled in the trial (n=15). T cell-proliferative response after in vitro culture with dnaJP1(a) or an irrelevant altered peptide ligand (b) in a standard proliferation assay. Phytohemagglutinin (a, ▴) was used as a positive control for T cell proliferation. […] Intracellular production of IL-2, IFN-γ, and TNF-α in response to dnaJP1 (c, e, and g) or PADRE peptide (d-f and h, respectively) at day 0 assessed at monthly intervals during treatment. Cytokine production is expressed as the percentage of CD3/cytokine double-positive cells measured by FACS in antigen-stimulated cultures, nonstimulated cultures (y axis). Error bars represent SD of the mean. Intracellular production of IL-4 (i) and IL-10 (k) after in vitro culture with dnaJP1 or with PADRE (j and l) at days 0, 56, and 168 of the treatment period.
T Cell Proliferation Assays. Peripheral blood mononuclear cells (PBMCs) were cultured in triplicate in […] u-shaped bottom wells (Costar, Cambridge, Mass.) at 5×10^5 cells per well for 120 h with or without antigen. […] Thymidine uptake was measured by using a liquid scintillation counter. Results are expressed as a mean cpm of triplicate cultures. The magnitude of the response is expressed as stimulation index: the mean cpm of stimulated/nonstimulated cultures. […]

[5] = tested on: PBMC of subjects with JIA; test: immunological recognition (T cell proliferation and/or cytokine production) in subjects with JIA; type: cell-based, human
Text: The right Y-axis depicts the stimulation index SI, and the left Y-axis depicts the production of cytokines INF-γ and IL-10 in pg/ml.
Immunological recognition of an antigen can be defined as antigen-specific T cell proliferation and/or antigen-specific cytokine production after culture with the specific antigens. In addition, in a very high percentage of subjects (ranging from 60 to 100%), T cell recognition of these pan DR binding hsp60 peptides could be detected (FIG. 9). This percentage can be considered extremely high if one considers both the failures of previous studies to determine T cell epitopes in JIA and the heterogenic HLA background in subjects with JIA.
If one compares the identified peptides with peptides that previously have been identified through the rat model of arthritis, the superiority of the method used here becomes evident. In previous studies in the model of adjuvant arthritis, it has been shown that mycobacterial hsp60 peptide containing amino acids 256-270 could induce protection in Adjuvant Arthritis. Following this finding a lot of effort has been put in attempting to identify the presence of 256-270 specific T cells in subjects with JIA. Based on the data provided by the computer algorithm, a new peptide was designed that was compared to the 256-270 aa peptide. […]

patients with RA = settings: 15 RA patients, 0.25, 2.5 or 25 mg daily orally for 6 months
Description: This study was a Phase I Immune Tolerization study conducted to determine whether in RA interplay between HLA and dnaJ-derived peptides there is maintained and/or stimulation of T cells which participate in autoimmune inflammation. The trial (number “n” of patients who completed=13) was designed in order to adhere to the American College of Rheumatology (ACR) 20 criteria for evaluation of efficacy.
Data from Phase I: The data shown in FIGS. 11A-E and 12A-E stem from a Phase I trial in which a total of 13 human RA patients were treated with three different doses of dnaJP1 qd po for 6 months. In vitro T cell responses to dnaJP1 were monitored at monthly intervals by measuring T cell proliferation and cytokine production in patients treated with dnaJP1 or control molecules.
We designed a pilot clinical trial to obtain information regarding both safety and immunological efficacy of the treatment. Enrollment criteria for this study included active RA as defined by the American College of Rheumatology, a disease duration <5 years and in vitro responsiveness to dnaJP1, defined as T cell proliferation and/or production of proinflammatory cytokines. DnaJP1 was given orally for 6 months. […]

Compound | recognition (T cell proliferation) by RA patients [1] | also measured
IAGLFLTTEAVVADK [P7] | recognized | –
KCEFQDAYVLLSEKK [P6] | recognized | –
VASLLTTAEVVVTEI (listed as Homo sapiens) [P8, residues 535-549 of human hsp60] | recognized | recognition (T cell proliferation, SI) in JDM patients [2]: recognized by the patients during disease remission
mycobacterial hsp60 256-270: negative control peptide, mycobacterial hsp60 amino acids 256-270, protective in rat adjuvant arthritis | – | antigen-specific cytokine production (IL-10, IFN-γ, TNF-α) [3]: did not induce any cytokine production
EAVLEDPYILLVSSK [P5] | recognized | –
GEALSTLVLNRLKVG [P2] | recognized | –
AYVLLSEKKISSIQS [P4] | recognized | –
PYILLVSSKVSTVKD [P3] | recognized | –
DERAAYDQYGHAAFE (Biotin-DERAAYDQYGHAAFE-NH2; SMILES C[C@H](NC(=O)[C@H](C)NC(=O)[C@H](Cc1c[nH]cn1)NC(=O)CNC(=O)[C@H](Cc1ccc(O)cc1)NC(=O)[C@H](CCC(N)=O)NC(=O)[C@H](CC(=O)O)NC(=O)[C@H](Cc1ccc(O)cc1)NC(=O)[C@H](C)NC(=O)[C@H](C)NC(=O)[C@H](CCCNC(=N)N)NC(=O)[C@H](CCC(=O)O)NC(=O)[C@H](CC(=O)O)NC(=O)CCCC[C@@H]1SC[C@@H]2NC(=O)N[C@@H]21)C(=O)N[C@@H](Cc1ccccc1)C(=O)N[C@@H](CCC(=O)O)C(N)=O) [dnaJPv, altered peptide ligand, identical to dnaJP1 except for the two N-terminal amino acids; negative control] | – | proliferative T cell response in patients with RA [4]: does not induce a proliferative T cell response; proliferative T cell response in patients with RA ([4]; listed as dnaJpV): not stimulatory in patients
GEALSTLVVNKIRGT [P1] | recognized | T cell responses as defined by T cell proliferation and cytokine production [5]: did induce T cell responses
C[C@H](NC(=O)[C@H](C)NC(=O)[C@H](Cc1c[nH]cn1)NC(=O)CNC(=O)[C@H](Cc1ccc(O)cc1)NC(=O)[C@H](CCC(N)=O)NC(=O)[C@H](CC(=O)O)NC(=O)[C@H](Cc1ccc(O)cc1)NC(=O)[C@H](C)NC(=O)[C@H](C)NC(=O)[C@H](CCCNC(=N)N)NC(=O)[C@H](CCCCN)NC(=O)[C@H](CCC(N)=O)NC(=O)CCCC[C@@H]1SC[C@@H]2NC(=O)N[C@@H]21)C(=O)N[C@@H](Cc1ccccc1)C(=O)N[C@@H](CCC(=O)O)C(N)=O [dnaJP1] (Biotin-QKRAAYDQYGHAAFE-NH2) | – | tolerability / side effects (patients with RA): well tolerated because no significant side effects were reported
